Data on 14 compounds can be found in ChEMBL document CHEMBL1201862, “PubChem BioAssay data set” (2004).

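Tested at 5 concentrations; 48 h exposure; 96-well plates; endpoints linearly interpolated, else capped at highest concentration. The concentration for 50% growth inhibition is given as GI50.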 Activity calls are given as the source filed them. No stated cut-off is given here; in the data, active = GI50 up to about 1.1 µM and inactive = higher.

Among the test systems are HCT-15; CAKI-1; SNB-19; A549; NCI-H522; LXFL 529; UACC-257; 786-0; M19-MEL; SF-268; NCI-H226; SN12C; OVCAR-4; HT-29; Malme-3M; A498; SK-MEL-28.
Assay in all cases: DTP human tumour cell line panel, 48 h

For orientation: GI50 means the concentration that inhibits growth by half. Take `Nc1nc(Cl)cc(NCCCCCCCCCCNc2cc(Cl)nc(N)n2)n1`: the GI50 in the assay on HCT-15 is 3.55 µM; in the assay with CAKI-1, 25.6 µM (inactive); with SNB-19 it was 75 µM (inactive); with A549, 3.21 µM (inactive); in the assay on NCI-H522 it was 0.415 µM (active); in the assay on LXFL 529, 1.27 µM (inactive). For the same compound, the GI50 in the assay with UACC-257 is 1.05 µM (active); in the assay on 786-0 it was 21.5 µM (inactive); with M19-MEL, 7.4 µM (inactive); in the assay with SF-268 it was 3.26 µM (inactive); in the assay with NCI-H226, 1.99 µM (inactive); with SN12C, 71.9 µM (inactive). The GI50 in the assay with OVCAR-4 is 8.13 µM (inactive); in the assay on HT-29 it was 8.93 µM (inactive).

For the compound `CC(C)=Cc1cc(C(=O)Nc2ccc(Cl)c(Cl)c2)nc(N)n1`, the 50% growth inhibitory concentration (GI50) was more than 100 µM with HCT-15; > 100 µM (inactive) in the assay with CAKI-1; > 100 µM (inactive) with SNB-19; > 100 µM (inactive) in the assay on A549; > 100 µM (inactive) with Malme-3M; > 100 µM (inactive) in the assay with LXFL 529. In addition, the GI50 in the assay with UACC-257, in the assay with 786-0, with A498, with M19-MEL, in the assay on SF-268 and in the assay on NCI-H226 was > 100 µM (inactive) in each case. Besides, the GI50 in the assay with SK-MEL-28, in the assay with SN12C, in the assay with OVCAR-4 and with HT-29 was > 100 µM (inactive) in each case.

As for `COC[n+]1cc2cc(OC)c(OC)cc2c2ccc3cc(OC)c(OC)cc3c21`, the GI50 in the assay on HCT-15 is more than 100 µM; with CAKI-1, > 100 µM (inactive); with SNB-19 it was > 100 µM (inactive); with A549 it was > 100 µM (inactive); in the assay with NCI-H522, > 100 µM (inactive); in the assay with Malme-3M, > 100 µM (inactive). Besides, the GI50 with LXFL 529, with UACC-257, with 786-0, in the assay with M19-MEL, in the assay on SF-268 and in the assay on NCI-H226 was > 100 µM (inactive) in each case. In addition, the GI50 with SK-MEL-28, in the assay with SN12C, in the assay on OVCAR-4 and in the assay with HT-29 was > 100 µM (inactive) in each case.

On to `CN(C)CC(/C(Cc1ccccc1)=N\NC(=O)c1ccncc1)c1ccccc1` (stereo not given), for which the GI50 in the assay on CAKI-1 is 44.3 µM (inactive); in the assay with SNB-19, 39 µM (inactive); with A549 it was 30.3 µM (inactive); in the assay on NCI-H522, 27.4 µM (inactive); in the assay on Malme-3M, 28.8 µM (inactive); in the assay with LXFL 529 it was 36.1 µM (inactive). For the same compound, the GI50 in the assay on UACC-257 was 32.3 µM (inactive); in the assay on 786-0 it was 30 µM (inactive); in the assay on M19-MEL, 30.1 µM (inactive); in the assay with SF-268, 33.4 µM (inactive); in the assay with NCI-H226, 71.6 µM (inactive); with SK-MEL-28, 45.9 µM (inactive). For the same compound, the GI50 was 46.2 µM (inactive) in the assay with SN12C, 36.7 µM (inactive) in the assay on OVCAR-4 and 41 µM (inactive) in the assay with HT-29.

For `COc1cc(/C=C(\NC(=O)c2ccccc2)c2nc3cncnc3[nH]2)cc(OC)c1OC`, the 50% growth inhibitory concentration (GI50) with HCT-15 is more than 100 µM; in the assay with CAKI-1, > 100 µM (inactive); in the assay with SNB-19, > 100 µM (inactive); in the assay with A549, > 100 µM (inactive); in the assay on NCI-H522 it was > 100 µM (inactive); with Malme-3M it was > 100 µM (inactive). In addition, the GI50 in the assay with LXFL 529, with 786-0, in the assay with M19-MEL, with SF-268, in the assay with SK-MEL-28 and in the assay with SN12C was > 100 µM (inactive) each time. Further, the GI50 in the assay with OVCAR-4 and in the assay with HT-29 was > 100 µM (inactive) in each case.

In the case of `Cc1ccc2nc(NC(=O)C(=O)C(C#N)c3ccc(Cl)cc3)sc2c1` (stereo not given), the GI50 is more than 50 µM in the assay on HCT-15; > 50 µM (inactive) in the assay with CAKI-1; > 50 µM (inactive) in the assay with SNB-19; > 50 µM (inactive) with A549; > 50 µM (inactive) in the assay with Malme-3M; > 50 µM (inactive) with LXFL 529. The GI50 in the assay with UACC-257, in the assay on 786-0, with M19-MEL, with SF-268, with NCI-H226 and in the assay on SK-MEL-28 was > 50 µM (inactive) in each case. Also, the GI50 in the assay on SN12C, with OVCAR-4 and with HT-29 was > 50 µM (inactive) in each case.

For the compound `CCCCCCCCCCC(O)CCCCCCC(=O)O` (stereo not given), the GI50 in the assay on CAKI-1 was 36.3 µM (inactive); in the assay with SNB-19 it was 48.8 µM (inactive); in the assay with A549, 18.2 µM (inactive); with NCI-H522 it was 24.5 µM (inactive); with Malme-3M, 26.2 µM (inactive); in the assay on LXFL 529, 23.4 µM (inactive). For the same compound, the GI50 with UACC-257 is 69.3 µM (inactive); with 786-0, 24.5 µM (inactive); in the assay with A498 it was 23.2 µM (inactive); in the assay on M19-MEL, 35.6 µM (inactive); with SF-268 it was 77.4 µM (inactive); in the assay with NCI-H226, 52 µM (inactive). For the same compound, the GI50 was 45.8 µM (inactive) in the assay with SK-MEL-28, 21.1 µM (inactive) in the assay on SN12C, 39.1 µM (inactive) in the assay with OVCAR-4 and 19.9 µM (inactive) in the assay on HT-29.

Take `O=C(OCc1ccccc1)N1N=NC2C3CC(OCc4ccccc4)(OCc4ccccc4)C(O3)C21` (stereo not given): the concentration for 50% growth inhibition (GI50) with HCT-15 was 34 µM; in the assay with CAKI-1, 25.7 µM (inactive); with A549, 17.3 µM (inactive); with Malme-3M, 16.1 µM (inactive); in the assay with LXFL 529 it was 18.8 µM (inactive); with UACC-257, 14 µM (inactive). The GI50 in the assay on 786-0 is 29.1 µM (inactive); in the assay on A498, 41.7 µM (inactive); in the assay with M19-MEL, 24.4 µM (inactive); in the assay on SF-268, 22.4 µM (inactive); with NCI-H226, 12.6 µM (inactive); with SK-MEL-28, 21.3 µM (inactive). Besides, the GI50 in the assay with SN12C was 41.9 µM (inactive); in the assay with OVCAR-4 it was 22.2 µM (inactive); in the assay on HT-29, 26 µM (inactive).

`COc1cc([C@@H]2c3cc4c(cc3[C@@H](OC(=O)c3ccccc3)C3COC(=O)[C@@H]32)OCO4)cc(OC)c1O` (stereo not given in full): the GI50 was < 0.01 µM (active) with CAKI-1; 0.0132 µM (active) with A549; < 0.01 µM (active) in the assay with NCI-H522; < 0.01 µM (active) in the assay with Malme-3M; < 0.01 µM (active) with LXFL 529; 0.0254 µM (active) in the assay with 786-0. Moreover, the GI50 in the assay with M19-MEL is < 0.01 µM (active); with SF-268, 0.0289 µM (active); in the assay with NCI-H226, < 0.01 µM (active); with SK-MEL-28, < 0.01 µM (active); in the assay with SN12C, 0.0286 µM (active); in the assay on OVCAR-4, 25.9 µM (inactive). Besides, the GI50 with HT-29 is < 0.01 µM (active).

With `O=C(CCc1ccccc1)On1nnc2ccccc2c1=O`, the 50% growth inhibitory concentration (GI50) with HCT-15 was more than 100 µM; with CAKI-1 it was 30.8 µM (inactive); with SNB-19, > 100 µM (inactive); in the assay with A549 it was > 100 µM (inactive); in the assay with NCI-H522, > 100 µM (inactive); in the assay on Malme-3M it was > 100 µM (inactive). The GI50 was > 100 µM (inactive) in the assay on LXFL 529; > 100 µM (inactive) in the assay on UACC-257; > 100 µM (inactive) with 786-0; 38.3 µM (inactive) in the assay on A498; > 100 µM (inactive) in the assay on M19-MEL; > 100 µM (inactive) in the assay with SF-268. For the same compound, the GI50 with NCI-H226, with SN12C, in the assay with OVCAR-4 and with HT-29 was > 100 µM (inactive) in each case.

In the case of `C/C(=N\NS(=O)(=O)c1ccc(C)cc1)c1ccc[n+]([O-])n1`, the GI50 is more than 100 µM in the assay with HCT-15; 25.1 µM (inactive) in the assay with CAKI-1; > 100 µM (inactive) in the assay with SNB-19; > 100 µM (inactive) in the assay on A549; 36.9 µM (inactive) with NCI-H522; 45.2 µM (inactive) in the assay on LXFL 529. The GI50 in the assay on UACC-257, in the assay on 786-0, in the assay with A498, with M19-MEL, in the assay with SF-268 and with SK-MEL-28 was > 100 µM (inactive) throughout. Moreover, the GI50 in the assay with SN12C, in the assay with OVCAR-4 and with HT-29 was > 100 µM (inactive) throughout.

Regarding `O=C1C2c3[nH]c4ccccc4c3C3CCCC3C2C(=O)N1c1ccccc1` (stereo not given), the GI50 in the assay with HCT-15 was 78 µM; in the assay on A549, > 100 µM (inactive); in the assay with Malme-3M it was > 100 µM (inactive); with LXFL 529 it was > 100 µM (inactive); in the assay with 786-0, > 100 µM (inactive); in the assay with A498, > 100 µM (inactive). Moreover, the GI50 is > 100 µM (inactive) with M19-MEL; > 100 µM (inactive) in the assay on SF-268; > 100 µM (inactive) in the assay with SK-MEL-28; > 100 µM (inactive) in the assay on SN12C; 17.1 µM (inactive) in the assay with OVCAR-4; > 100 µM (inactive) in the assay on HT-29.

In the case of `C[C@@]1(Cc2ccccc2)C(=O)N2[C@@H](CO)C(c3ccccc3)O[C@]2(C)c2ccccc21` (stereo not given in full), the concentration for 50% growth inhibition (GI50) with HCT-15 is more than 100 µM; with CAKI-1 it was 26.2 µM (inactive); with SNB-19 it was > 100 µM (inactive); in the assay on A549, > 100 µM (inactive); in the assay with NCI-H522, 81.1 µM (inactive); in the assay with LXFL 529 it was > 100 µM (inactive). For the same compound, the GI50 was 52.7 µM (inactive) in the assay with 786-0; > 100 µM (inactive) in the assay with M19-MEL; > 100 µM (inactive) with SF-268; > 100 µM (inactive) with NCI-H226; > 100 µM (inactive) in the assay on SK-MEL-28; > 100 µM (inactive) with OVCAR-4.

For the compound `O=C1c2ccccc2C(=O)c2c1ccc(O)c2O` [ATHRAQUINONES A], the 50% growth inhibitory concentration (GI50) with HCT-15 is 37.1 µM; with CAKI-1, 39.5 µM (inactive); in the assay on SNB-19 it was 61.2 µM (inactive); in the assay on A549, > 10 µM (inactive); in the assay on NCI-H522 it was 39.4 µM (inactive); in the assay on LXFL 529, 43.2 µM (inactive). For the same compound, the GI50 was 71.1 µM (inactive) in the assay on UACC-257; 63 µM (inactive) in the assay on 786-0; 39.5 µM (inactive) in the assay with A498; 72.4 µM (inactive) in the assay with M19-MEL; 32 µM (inactive) in the assay with SF-268; 94.8 µM (inactive) in the assay on NCI-H226. Further, the GI50 is > 100 µM (inactive) in the assay with SK-MEL-28, 42.3 µM (inactive) in the assay with SN12C, 32.1 µM (inactive) with OVCAR-4 and 36 µM (inactive) in the assay on HT-29.
